This is an account of results in PubChem BioAssay (NCI).

Among the test systems are A549 NSCLC; BT-549 breast; DU-145 prostate; HCT-15 colon; M14 melanoma; NCI-H23 lung; OVCAR-8 ovarian; SF-268 CNS; SF-539 CNS; SK-OV-3 ovarian.
What all share (assay): inhibition of tumour cell growth, NCI panel, 48 h

SMILES strings stand for the structures.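 These data come from cells grown in 96-well plates and exposed to compound for 48 hours at five concentrations. GI50 = concentration required for 50% inhibition of growth. TGI denotes the concentration required for complete inhibition of growth.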

As for `CCCC(=O)O[C@]1(C)CC[C@@H]2[C@H]3[C@@H]1[C@@H]1C[C@@](C)(O)[C@H](OC)CC[C@](C)(OC(=O)[C@@H]2C)[C@H]3O1`, the GI50 in the experiment on A549 NSCLC is 40.6 µM; in the experiment with BT-549 breast, 40.3 µM; in the experiment on DU-145 prostate, 43.4 µM; in the experiment on HCT-15 colon it was 47 µM; with M14 melanoma, 28.9 µM; in the experiment with NCI-H23 lung it was 96.1 µM. For the same compound, the GI50 with OVCAR-8 ovarian was 39.1 µM; in the experiment on SF-268 CNS, 38.6 µM; with SF-539 CNS it was 71.7 µM; in the experiment with SK-OV-3 ovarian, 31 µM. Besides, the TGI with A549 NSCLC, with BT-549 breast, with DU-145 prostate, in the experiment on HCT-15 colon, in the experiment with M14 melanoma and with NCI-H23 lung was greater than 100 µM throughout. Further, the TGI with OVCAR-8 ovarian is greater than 100 µM; in the experiment on SF-268 CNS, greater than 100 µM; in the experiment on SF-539 CNS, greater than 100 µM; with SK-OV-3 ovarian, 97.1 µM.
As to `CC1=NN(c2cccc(Cl)c2)C(=O)/C1=C\c1cn(CC(O)CN2CCCCC2)c2ccccc12` (stereo not given), the GI50 in the experiment with A549 NSCLC is 24.6 µM; in the experiment on BT-549 breast, 15 µM; in the experiment on DU-145 prostate, 10.4 µM; in the experiment on HCT-15 colon it was 2.42 µM; in the experiment on M14 melanoma, 1.75 µM; in the experiment on NCI-H23 lung it was 12.4 µM. In addition, the GI50 in the experiment with OVCAR-8 ovarian is 6.93 µM; with SF-268 CNS, 10.1 µM; with SF-539 CNS it was 10.2 µM; in the experiment on SK-OV-3 ovarian it was 12.9 µM. Also, the TGI amounted to 72.9 µM in the experiment with A549 NSCLC; 29.5 µM with BT-549 breast; 23.2 µM in the experiment on DU-145 prostate; 6.7 µM in the experiment with HCT-15 colon; 3.29 µM in the experiment on M14 melanoma; 32.4 µM with NCI-H23 lung. Moreover, the TGI in the experiment with OVCAR-8 ovarian was found to be 92.9 µM; in the experiment on SF-268 CNS, 24.9 µM; in the experiment with SF-539 CNS, 26.6 µM; with SK-OV-3 ovarian it was 26.6 µM.
In the case of `CN1CCN(C2=NC(=O)/C(=C\c3ccc(N(C)C)cc3)S2)CC1`, the GI50 was greater than 100 µM with A549 NSCLC; greater than 100 µM in the experiment with BT-549 breast; greater than 100 µM in the experiment on DU-145 prostate; greater than 100 µM with HCT-15 colon; 3.79 µM with M14 melanoma; greater than 100 µM in the experiment with NCI-H23 lung. The GI50 in the experiment on OVCAR-8 ovarian, in the experiment with SF-268 CNS, in the experiment with SF-539 CNS and with SK-OV-3 ovarian was greater than 100 µM throughout. In addition, the TGI with A549 NSCLC, in the experiment on BT-549 breast, in the experiment with DU-145 prostate, in the experiment on HCT-15 colon, with M14 melanoma and with NCI-H23 lung was greater than 100 µM in each case. The TGI with OVCAR-8 ovarian, in the experiment with SF-268 CNS, in the experiment on SF-539 CNS and in the experiment with SK-OV-3 ovarian was greater than 100 µM throughout.
In the case of `Clc1ccccc1C(Nc1cnccn1)Nc1cnccn1`, the TGI in the experiment on A549 NSCLC, in the experiment with BT-549 breast, in the experiment with DU-145 prostate, with HCT-15 colon, in the experiment with M14 melanoma and with NCI-H23 lung was greater than 100 µM in each case. The TGI with OVCAR-8 ovarian, in the experiment on SF-268 CNS, in the experiment with SF-539 CNS and in the experiment with SK-OV-3 ovarian was greater than 100 µM each time.
With `CCN(CC)C(=S)SSC(C)C`, the GI50 in the experiment on A549 NSCLC is 31.2 µM; with BT-549 breast, 13.4 µM; in the experiment with DU-145 prostate it was 17.1 µM; in the experiment with HCT-15 colon, 22 µM; with M14 melanoma, 6.1 µM; in the experiment with NCI-H23 lung, 16.4 µM. Also, the GI50 in the experiment with OVCAR-8 ovarian is 15.1 µM; in the experiment with SF-268 CNS, 16.2 µM; with SF-539 CNS it was 18.4 µM; in the experiment on SK-OV-3 ovarian, 30.3 µM. Further, the TGI with A549 NSCLC is greater than 100 µM; with BT-549 breast, 30.5 µM; in the experiment with DU-145 prostate, 35.2 µM; in the experiment on HCT-15 colon, 65.4 µM; in the experiment with M14 melanoma it was 20.6 µM; in the experiment with NCI-H23 lung, 36 µM. The TGI in the experiment with OVCAR-8 ovarian turned out to be 35.4 µM; in the experiment on SF-268 CNS, 37 µM; in the experiment on SF-539 CNS, 42.9 µM; with SK-OV-3 ovarian it was 95.7 µM.
For `COc1ccc(-c2ccc(OC)c(OC)c2OC)cc1`, the GI50 in the experiment on A549 NSCLC was 5.74 µM; in the experiment on BT-549 breast, 1.57 µM; in the experiment on DU-145 prostate it was 2.83 µM; in the experiment on HCT-15 colon, 0.766 µM; in the experiment on M14 melanoma it was 0.817 µM; in the experiment on NCI-H23 lung, 4.19 µM. The GI50 with OVCAR-8 ovarian was 6.9 µM; in the experiment with SF-268 CNS, 9.28 µM; with SF-539 CNS, 1.24 µM; in the experiment on SK-OV-3 ovarian it was 2.63 µM. Moreover, the TGI is greater than 100 µM with A549 NSCLC; greater than 62.6 µM with BT-549 breast; 19.3 µM in the experiment with DU-145 prostate; greater than 100 µM in the experiment with HCT-15 colon; greater than 77.8 µM in the experiment with M14 melanoma; greater than 100 µM in the experiment on NCI-H23 lung. For the same compound, the TGI in the experiment on OVCAR-8 ovarian was greater than 100 µM; in the experiment on SF-268 CNS it was greater than 100 µM; in the experiment on SF-539 CNS it was 5.31 µM; with SK-OV-3 ovarian, 62 µM.
Regarding `Cc1ccc(/C(=N/Nc2ccc([N+](=O)[O-])cc2)Sc2cc(Cl)c(C)cc2S(N)(=O)=O)cc1`, the GI50 in the experiment on A549 NSCLC was 2.55 µM; in the experiment on BT-549 breast it was 10.4 µM; in the experiment with DU-145 prostate, 1.75 µM; in the experiment on HCT-15 colon, 3.64 µM; with M14 melanoma, 1.78 µM; in the experiment on NCI-H23 lung it was 1.64 µM. In addition, the GI50 in the experiment with OVCAR-8 ovarian is 7.38 µM; with SF-268 CNS it was 1.91 µM; in the experiment on SF-539 CNS, 1.1 µM; in the experiment on SK-OV-3 ovarian it was 1.94 µM. Further, the TGI was 7.45 µM in the experiment on A549 NSCLC; 26 µM in the experiment with BT-549 breast; 4.1 µM in the experiment with DU-145 prostate; greater than 49.6 µM in the experiment with HCT-15 colon; 3.85 µM in the experiment on M14 melanoma; 3.59 µM in the experiment on NCI-H23 lung. Besides, the TGI in the experiment with OVCAR-8 ovarian is greater than 100 µM; with SF-268 CNS, 7.37 µM; in the experiment with SF-539 CNS, 2.97 µM; in the experiment with SK-OV-3 ovarian, 4.34 µM.
As for `CCC[CH2][Sn-]([CH2]CCC)([CH2]CCC)[O]C(=O)C(C)C`, the GI50 in the experiment with A549 NSCLC was 0.13 µM; in the experiment with BT-549 breast, 0.135 µM; in the experiment on DU-145 prostate, 0.124 µM; in the experiment with HCT-15 colon it was 0.117 µM; with M14 melanoma, 0.109 µM; in the experiment with NCI-H23 lung, 0.115 µM. Further, the GI50 is 0.129 µM in the experiment on OVCAR-8 ovarian, 0.144 µM with SF-268 CNS, 0.157 µM in the experiment on SF-539 CNS and 0.151 µM in the experiment on SK-OV-3 ovarian. The TGI is 0.267 µM in the experiment on A549 NSCLC; 0.312 µM in the experiment with BT-549 breast; 0.252 µM with DU-145 prostate; 0.249 µM with HCT-15 colon; 0.23 µM in the experiment with M14 melanoma; 0.31 µM in the experiment on NCI-H23 lung. In addition, the TGI in the experiment on OVCAR-8 ovarian was determined as 0.255 µM; in the experiment with SF-268 CNS it was 0.333 µM; with SF-539 CNS, 0.296 µM; in the experiment with SK-OV-3 ovarian it was 0.293 µM.
With `O=C(Nc1n[nH]c2cc(-c3cc(F)ccc3F)ccc12)C1CC1`, the GI50 was 11.4 µM in the experiment with A549 NSCLC; greater than 21.7 µM in the experiment with BT-549 breast; 17.7 µM with DU-145 prostate; 8.39 µM in the experiment with HCT-15 colon; 13.8 µM with M14 melanoma; 14.2 µM in the experiment on NCI-H23 lung. The GI50 in the experiment with OVCAR-8 ovarian was greater than 22 µM; with SF-268 CNS, 19.5 µM; with SF-539 CNS, 13.5 µM; in the experiment with SK-OV-3 ovarian, 11.1 µM. Further, the TGI with A549 NSCLC, with BT-549 breast, in the experiment with DU-145 prostate, in the experiment with HCT-15 colon, in the experiment on M14 melanoma and with NCI-H23 lung was greater than 25 µM each time. Also, the TGI in the experiment with OVCAR-8 ovarian, in the experiment with SF-268 CNS, in the experiment on SF-539 CNS and in the experiment with SK-OV-3 ovarian was greater than 25 µM throughout.
Turning to `COc1cc2c(/C=C3\C(=O)Nc4ccccc43)c[nH]c2cc1C`, the GI50 was less than 0.0289 µM in the experiment on A549 NSCLC; 0.294 µM in the experiment with BT-549 breast; 0.0242 µM in the experiment with DU-145 prostate; 0.725 µM in the experiment with HCT-15 colon; less than 0.0178 µM in the experiment on M14 melanoma; 0.0115 µM in the experiment on NCI-H23 lung. The GI50 was 0.0917 µM in the experiment with OVCAR-8 ovarian, 0.861 µM in the experiment with SF-268 CNS, less than 0.0138 µM in the experiment with SF-539 CNS and 0.0856 µM with SK-OV-3 ovarian. For the same compound, the TGI in the experiment with A549 NSCLC was found to be 17.3 µM; with BT-549 breast it was 15.8 µM; in the experiment on DU-145 prostate it was 12.3 µM; with HCT-15 colon it was 2.93 µM; in the experiment on M14 melanoma, 0.843 µM; in the experiment with NCI-H23 lung, 0.0719 µM. Besides, the TGI in the experiment with OVCAR-8 ovarian was 7.19 µM; with SF-268 CNS, greater than 100 µM; in the experiment on SF-539 CNS, less than 0.0243 µM; in the experiment on SK-OV-3 ovarian, 3.21 µM.
